Data from ChEMBL document CHEMBL3885861, “Open TG-GATES”.

Species: Rattus norvegicus
Assay: Open TG-GATES - Regimen: Single
Format: toxicity, organism-based, Sprague-Dawley
Parameters: regimen Single, gender Male, age 6 weeks
Conditions: in vivo, po, 100 mg/kg, route gavage, dose level High; for APTT / Bas / Eos / Fbg / Hb / Ht / Lym / MCH / MCHC / MCV / Mono / Neu / PT / Plat / RBC / Ret / WBC: tissue Blood; for KIDNEY_L / KIDNEY_R / KIDNEY_TOTAL: tissue Kidney; for LIVER: tissue Liver; for A/G / ALP / ALT / AST / BUN / CRE / Ca / Cl / DBIL / GLC / IP / K / LDH / Na / PL / RALB / TBIL / TC / TG / TP / gamma-GTP: tissue Plasma

`OCCOCCN1CCN(C(c2ccccc2)c2ccc(Cl)cc2)CC1` (stereo unspecified) [HYDROXYZINE] was tested, and the TERMINAL_BW (9 h) was 190.3 g, the APTT (9 h) was 15.9 s and the Bas (9 h) was 0.2%. The Eos (9 h) was 0.8%, the Fbg (9 h) was 288.6 mg/dL and the Hb (9 h) was 13 g/dL. For the same compound, the Ht (9 h) was 40.5%, the Lym (9 h) was 78.8% and the MCH (9 h) was 21.5 pg. For the same compound, the MCHC (9 h) was 32%, the MCV (9 h) was 67.2 fL and the Mono (9 h) was 2.8%. It also gave a Neu (9 h) of 16.6%, a PT (9 h) of 15.6 s and a Plat (9 h) of 116.3 x10_4/uL. The RBC (9 h) was 603.4 x10_4/ul, the Ret (9 h) was 8.6% and the WBC (9 h) was 75.7 x10_2/uL. The KIDNEY_L (9 h) was 0.9 g, the KIDNEY_R (9 h) was 0.9 g and the KIDNEY_TOTAL (9 h) was 1.8 g. The LIVER (9 h) was 7.7 g, the A/G (9 h) was 0.9 and the ALP (9 h) was 1671.6 IU/L. For the same compound, the ALT (9 h) was 36.2 IU/L, the AST (9 h) was 76.6 IU/L and the BUN (9 h) was 8.2 mg/dL. The CRE (9 h) was 0.2 mg/dL, the Ca (9 h) was 10.6 mg/dL and the Cl (9 h) was 106.6 meq/L. It also gave a DBIL (9 h) of 0.016 mg/dL, a GLC (9 h) of 182.4 mg/dL and an IP (9 h) of 10.6 mg/dL. The K (9 h) was 4.3 meq/L, the LDH (9 h) was 63 IU/L and the Na (9 h) was 142 meq/L. It also gave a PL (9 h) of 124.4 mg/dL, an RALB (9 h) of 2.5 g/dL and a TBIL (9 h) of 0.066 mg/dL. For the same compound, the TC (9 h) was 64.6 mg/dL, the TG (9 h) was 34.2 mg/dL and the TP (9 h) was 5.4 g/dL. For the same compound, the gamma-GTP (9 h) was 1 IU/L, the TERMINAL_BW (24 h) was 198.7 g and the APTT (24 h) was 16.8 s. For the same compound, the Bas (24 h) was 0%, the Eos (24 h) was 0.8% and the Fbg (24 h) was 253.6 mg/dL. The Hb (24 h) was 13.3 g/dL, the Ht (24 h) was 40.4% and the Lym (24 h) was 78.4%. It also gave an MCH (24 h) of 22.2 pg, an MCHC (24 h) of 32.9% and an MCV (24 h) of 67.4 fL. The Mono (24 h) was 3.6%, the Neu (24 h) was 16.4% and the PT (24 h) was 16.8 s. The Plat (24 h) was 123.7 x10_4/uL, the RBC (24 h) was 599.6 x10_4/ul and the Ret (24 h) was 7.7%. It also gave a WBC (24 h) of 74.7 x10_2/uL, a KIDNEY_L (24 h) of 0.9 g and a KIDNEY_R (24 h) of 0.9 g. For the same compound, the KIDNEY_TOTAL (24 h) was 1.9 g, the LIVER (24 h) was 9 g and the A/G (24 h) was 0.8. It also gave an ALP (24 h) of 1880 IU/L, an ALT (24 h) of 45.6 IU/L and an AST (24 h) of 75.8 IU/L. It also gave a BUN (24 h) of 15.6 mg/dL, a CRE (24 h) of 0.2 mg/dL and a Ca (24 h) of 11.1 mg/dL. It also gave a Cl (24 h) of 107 meq/L, a DBIL (24 h) of 0.016 mg/dL and a GLC (24 h) of 181.6 mg/dL. It also gave an IP (24 h) of 7.7 mg/dL, a K (24 h) of 4.2 meq/L and an LDH (24 h) of 76 IU/L. For the same compound, the Na (24 h) was 141.4 meq/L, the PL (24 h) was 135 mg/dL and the RALB (24 h) was 2.6 g/dL. The TBIL (24 h) was 0.06 mg/dL, the TC (24 h) was 75.4 mg/dL and the TG (24 h) was 52.2 mg/dL. It also gave a TP (24 h) of 5.6 g/dL and a gamma-GTP (24 h) of 0.6 IU/L.
